Active and inactive are the calls of the source. No cut-off for these calls is given here.
Key:
Mus musculus = assay: Anti-inflammatory activity in MSU/C18:0 free fatty acid induced ip dosed Kunming mouse model of gouty arthritis assessed as reduction in joint swelling preadministered with compound for 30 mins followed by MSU/C18:0 free fatty acid injection and measured after 24 hrs; assay type: functional, organism-based; conditions: time 24.5 hrs
J774.A1 [1] = assay: Downregulation of p65 phosphorylation in mouse J774.A1 cells preincubated for 30 mins followed by LPS addition and measured after 2 hrs by Western blotting analysis; assay type: functional, cell-based; conditions: time 2.5 hrs
J774.A1 [2] = assay: Inhibition of pyroptosis in mouse J774.A1 cells assessed as reduction in number of annexin V and PI positive cells pretreated with LPS for 3 hrs followed by compound addition in presence of nigericin by flow cytometry analysis; assay type: functional, cell-based
J774.A1 [3] = assay: Downregulation of IKKalpha/beta phosphorylation in mouse J774.A1 cells preincubated for 30 mins followed by LPS addition and measured after 2 hrs by Western blotting analysis; assay type: functional, cell-based; conditions: time 2.5 hrs
J774.A1 [4] = assay: Downregulation of inhibitor kappa B-alpha phosphorylation in mouse J774.A1 cells preincubated for 30 mins followed by LPS addition and measured after 2 hrs by Western blotting analysis; assay type: functional, cell-based; conditions: time 2.5 hrs
Caspase-3 (Mus musculus) = biological target: T1, Caspase-3 (Mus musculus) (UniProt P70677); assay: Inhibition of cisplatin induced caspase-3 activation in mouse J774.A1 cells at 0.5 uM preincubated for 30 mins followed by cisplatin addition and incubated overnight; assay type: cell-based
T1 sequence (whole entry): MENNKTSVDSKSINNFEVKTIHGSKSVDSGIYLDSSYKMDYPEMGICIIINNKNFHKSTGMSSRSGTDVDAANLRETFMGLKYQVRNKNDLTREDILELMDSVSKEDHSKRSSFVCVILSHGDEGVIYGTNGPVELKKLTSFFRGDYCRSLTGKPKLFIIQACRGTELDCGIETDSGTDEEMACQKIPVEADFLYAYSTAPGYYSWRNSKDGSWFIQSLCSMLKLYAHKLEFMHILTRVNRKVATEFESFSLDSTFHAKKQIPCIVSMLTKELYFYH

J774.A1 [5] = assay: Inhibition of pyroptosis in mouse J774.A1 cells assessed as reduction in cleaved GSDMD expression pretreated with LPS for 3 hrs followed by compound addition in presence of nigericin by Western blotting analysis; assay type: functional, cell-based
Caspase-7 (Mus musculus) = biological target: T2, Caspase-7 (Mus musculus) (UniProt P97864); assay: Inhibition of cisplatin induced caspase-7 activation in mouse J774.A1 cells at 0.5 uM preincubated for 30 mins followed by cisplatin addition and incubated overnight; assay type: cell-based
T2 sequence (whole entry): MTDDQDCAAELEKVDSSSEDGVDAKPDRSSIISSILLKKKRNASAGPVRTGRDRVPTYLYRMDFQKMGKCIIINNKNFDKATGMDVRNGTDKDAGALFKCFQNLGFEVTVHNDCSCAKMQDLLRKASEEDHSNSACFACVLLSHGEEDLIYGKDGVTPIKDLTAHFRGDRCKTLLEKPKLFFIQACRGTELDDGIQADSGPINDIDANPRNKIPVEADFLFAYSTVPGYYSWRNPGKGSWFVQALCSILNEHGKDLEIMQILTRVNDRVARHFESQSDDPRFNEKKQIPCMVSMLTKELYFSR

J774.A1 [6] = assay: Inhibition of pyroptosis in mouse J774.A1 cells assessed as reduction in LDH release at 0.5 to 2 uM pretreated with LPS for 3 hrs followed by compound addition in presence of nigericin; assay type: functional, cell-based; conditions: dose 0.5-2 µM
J774.A1 [7] = assay: Inhibition of pyroptosis in mouse J774.A1 cells assessed as reduction in caspase-1 to GSDMD interaction at 0.5 uM pretreated with LPS for 3 hrs followed by compound addition in presence of nigericin by immunoprecipitation analysis; assay type: functional, cell-based
Caspase-1 (Mus musculus) = biological target: T3, Caspase-1 (Mus musculus) (UniProt P29452); assay: Binding affinity to caspase-1 in LPS-induced mouse J774.A1 cells assessed as reduction in IL-1beta level at 0.5 uM preincubated with compound followed by nigericin addition; assay type: cell-based; conditions: time 3-24 hrs
T3 sequence (whole entry): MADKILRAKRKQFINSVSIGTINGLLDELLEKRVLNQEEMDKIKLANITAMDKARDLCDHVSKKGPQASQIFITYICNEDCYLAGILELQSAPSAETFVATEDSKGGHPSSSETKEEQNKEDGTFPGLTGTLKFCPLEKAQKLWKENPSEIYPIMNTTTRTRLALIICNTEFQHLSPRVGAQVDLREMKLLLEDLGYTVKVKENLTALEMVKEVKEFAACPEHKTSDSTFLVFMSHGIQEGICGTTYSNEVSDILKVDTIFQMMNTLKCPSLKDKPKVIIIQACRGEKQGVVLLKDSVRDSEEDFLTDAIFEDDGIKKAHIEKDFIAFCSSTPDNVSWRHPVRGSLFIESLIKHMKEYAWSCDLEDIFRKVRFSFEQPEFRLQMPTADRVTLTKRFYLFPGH

SMILES	Activity (Mus musculus)	Activity (J774.A1 [1])	inhibition (J774.A1 [2])	Activity (J774.A1 [3])	Activity (J774.A1 [4])	inhibition (Caspase-3 (Mus musculus))	inhibition (J774.A1 [5])	inhibition (Caspase-7 (Mus musculus))	inhibition (J774.A1 [6])	inhibition (J774.A1 [7])	Activity (Caspase-1 (Mus musculus))
COc1cc2c(c(OC)c1OC)-c1ccc(OC)c(=O)cc1[C@@H](NC(C)=O)CC2	Active	–	–	–	–	–	–	–	–	–	–
CCO[C@@H]1OC(=O)C[C@@H]1NC(=O)[C@@H]1CCCN1C(=O)[C@@H](NC(=O)c1ccc(N)c(Cl)c1)C(C)(C)C	–	Active	Active	Active	Active	inactive	Active	inactive	Active	Active	inactive

From ChEMBL document CHEMBL5584334, “Discovery of a Covalent Inhibitor of Pro-Caspase-1 Zymogen Blocking NLRP3 Inflammasome Activation and Pyroptosis” (J Med Chem, 2024)
